From US9521847B2, “Synergistic weed control from applications of pyridine carboxylic acid herbicides and synthetic auxin herbicides and/or auxin transport inhibitors” (Dow AgroSciences LLC, priority 2014, dated 2016)
Read-outs that look alike come from different tables or passages of the source.

Key:
[1] = system: wild pansy (Viola tricolor, VIOTR); assay: Greenhouse postemergence trial, % visual injury; details: VIOTR
[2] = system: pigweed (AMARE, Amaranthus retroflexus); assay: Greenhouse postemergence trial, % visual injury; type: in vivo; details: for % visual injury, Obs: AMARE
[3] = system: soybean (Glycine max, GIAMA); assay: Greenhouse postemergence trial, % visual injury; type: in vivo; details: GLXMA, 140 g ae/ha
maize (ZEAMX) = assay: Greenhouse postemergence trial, crop phytotoxicity (% visual injury); details: ZEAMX
[4] = system: ivyleaf morningglory (Ipomoea hederacea, IPOHE); assay: Greenhouse postemergence trial, % visual injury; details: Ipomoea, post-emergence
[5] = system: velvetleaf (Abutilon theophrasti, ABUTH); assay: Greenhouse postemergence trial, % visual injury; type: in vivo; details: Abutilon theophrasti, post-emergence, ABUTH, read-out: % visual injury, Obs
winter wheat (TRZAW) [6] = assay: Greenhouse postemergence trial, crop phytotoxicity (% visual injury); details: for % visual injury, Obs: TRZAW
[7] = system: common chickweed (Stellaria media, STEME); assay: Greenhouse postemergence trial, % visual injury; type: in vivo; details: STEME
[8] = system: winter rape (BRSNW, Brassica napus); assay: Greenhouse postemergence trial, % visual injury; type: in vivo; details: for % visual injury Obs: 20-22 d
[9] = system: grain sorghum (Sorghum vulgare, SORVU); assay: Greenhouse postemergence trial, % visual injury; type: in vivo; details: SORVU, 140 g ae/ha
common rice (ORYSA) = assay: Greenhouse postemergence trial, crop phytotoxicity (% visual injury); details: ORYSA
[10] = system: common lambsquarters (CHEAL, Chenopodium album L.); assay: Greenhouse postemergence trial, % visual injury; type: in vivo
[11] = system: poinsettia (Euphorbia heterophylla, EPHHL); assay: Greenhouse postemergence trial, % visual injury; details: Euphorbia heterophylla, post-emergence
[12] = system: kochia (KCHSC, Kochia scoparia); assay: Greenhouse postemergence trial, % visual injury; type: in vivo; details: for % visual injury Obs: 20-22 d
Procedure: Following the protocol in Example 1, compound 1 and compound 2 were combined with 2,4 D EHE (EC) and applied to kochia (KCHSC, Kochia scoparia) and the phytotoxicity of the herbicidal compositions was measured.
Following the protocol in Example 1, compound 1 (EC) and Compound 2 (SC) were combined with diflufenzopyr and applied to kochia (Kochia scoparia, KCHSC) and the phytotoxicity of the herbicidal composition was measured.

winter wheat (TRZAW) [13] = details: Triticum aestivum (winter wheat), in vivo
[14] = system: CIRAR = Cirsium arvense (Canadian thistle); assay: Small plot field trial (Canada), % visual injury; type: in vivo; details: 35 g ae/ha alone, 46-64 DAA
Procedure: (§1) Trials were established as randomized complete blocks with 3-4 replicates. Individual plots were 2-3 meters (m) wide and 8-10 m long. Applications were made with backpack or tractor-mounted sprayers delivering a spray volume output of 100 liters per hectare (L/ha) using pressurized carbon dioxide (CO2) as a propellant. Compound 7 was combined with 2,4 D EHE (660 g ae/L EC formulation) and applied to spring wheat (TRZAS), and the phytotoxicity of the herbicidal compositions was measured. In addition, the efficacy of the herbicidal composition on Canadian thistle ([…], Cirsium arvense), […] scoparia), mallow ([…] pusilla), wild buckwheat (POLCO, Polygonum convolvulus), and lady's thumb (POLPE, Polygonum persicaria) was evaluated.

[15] = system: lady's thumb (POLPE, Polygonum persicaria); assay: Small plot field trial (Canada), % visual injury; type: in vivo; details: 35 g ae/ha alone, 14-16 DAA
Procedure: as §1

[16] = system: wild buckwheat (POLCO, Polygonum convolvulus); assay: Small plot field trial (Canada), % visual injury; type: in vivo; details: 35 g ae/ha alone, 15 DAA
Procedure: as §1

[17] = system: MALPU = Malva pusilla (mallow); assay: Small plot field trial (Canada), % visual injury; type: in vivo; details: 35 g ae/ha alone, 26-33 DAA
Procedure: as §1

[18] = system: kochia (KCHSC, Kochia scoparia); assay: Small plot field trial (Canada), % visual injury; type: in vivo; details: 35 g ae/ha alone, 46-64 DAA
Procedure: as §1

spring wheat (TRZAS) = assay: Small plot field trial (Canada), crop phytotoxicity (% visual injury); type: in vivo, Triticum aestivum; details: 35 g ae/ha alone
Description: Small plot field trials were established in Canada to evaluate efficacy and crop safety of Compound 7 with 2,4-D EHE. Trials were established as randomized complete blocks with 3-4 replicates. Individual plots were 2-3 meters (m) wide and 8-10 m long. Applications were made with backpack or tractor-mounted sprayers delivering a spray volume output of 100 liters per hectare (L/ha) using pressurized carbon dioxide (CO2) as a propellant. Compound 7 was combined with 2,4 D EHE (660 g ae/L EC formulation) and applied to spring wheat (TRZAS), and the phytotoxicity of the herbicidal compositions was measured. In addition, the efficacy of the herbicidal composition on Canadian thistle ([…], Cirsium arvense), kochia (KCHSC, Kochia scoparia), mallow (MALPU, Marva pusilla), wild buckwheat (POLCO, Polygonum convolvulus), and lady's thumb (POLPE, Polygonum persicaria) was evaluated.

[19] = system: Canadian thistle (CIRAR, Cirsium arvense); assay: Greenhouse postemergence trial, % visual injury;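 also: plants sprayed at second to third true leaf stage, injury scored visually 20-22 d later against solvent-blank sprayed controls, 0 meaning no injury and 100 complete kill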
[20] = system: kochia (KCHSC, Kochia scoparia); assay: Patio postemergence trial, % visual injury; type: in vivo; details: 20-22 d
Procedure: (§2) The plants were grown for 7-36 days (d) on a fenced, open-air patio. Nutrients and water were added on a regular basis.
(§3) Temperatures and photoperiods were dependent on the natural weather conditions during the trials. Weather conditions during trials were conducive for plant growth and development.

[21] = system: pigweed (AMARE, Amaranthus retroflexus); assay: Patio postemergence trial, % visual injury; type: in vivo; details: 20-22 d
Procedure: as §2, §3

winter wheat (TRZAW) [22] = assay: Patio postemergence trial, crop phytotoxicity (% visual injury); type: in vivo, Triticum aestivum; details: 20-22 d
Procedure: as §2, §3

spring barley (HORVS) = assay: Greenhouse postemergence trial, crop phytotoxicity (% visual injury)
[23] = system: wild buckwheat (Polygonum convolvulus, POLCO); assay: Greenhouse postemergence trial, % visual injury; type: in vivo; details: for % visual injury, Obs: POLCO
[24] = system: nutsedge (Cyperus esculentus, CYPES); assay: Greenhouse postemergence trial, % visual injury; type: in vivo; details: CYPES
[25] = system: large crabgrass (Digitaria sanguinalis, DIGSA); assay: Greenhouse postemergence trial, % visual injury; type: in vivo; details: Digitaria sanguinalis, post-emergence; DIGSA; MCPA EHE 140 g ae/ha; read-out: % visual injury, Obs
[26] = system: spring rape (Brassica napus, BRSNN); assay: Greenhouse postemergence trial, % visual injury; details: Brassica napus, post-emergence, read-out: % visual injury, Obs
[27] = Chenopodium album, post-emergence, read-out: % visual injury Obs
[28] = crop, 280 g ae/ha alone, 20-22 d

O=C(O)c1c(Cl)ccc2cc(Cl)cnc12 [quinclorac, reference compound]
% visual injury, Obs ([1]; 140 g ae/ha): 10%
% visual injury, Obs ([2]; 140 g ae/ha): 10%
% visual injury, Obs [3]: 30%
% visual injury, Obs (maize (ZEAMX); 140 g ae/ha): 0%
pest or weed control at 140 g/ha ([4]; read-out: % visual injury, Obs, IPOHE, 140 g ae/ha): 65%
pest or weed control at 140 g/ha ([5]; 140 g ae/ha): 0%
% visual injury, Obs (winter wheat (TRZAW) [6]; 140 g ae/ha): 0%
% visual injury, Obs ([7]; 140 g ae/ha): 10%
% visual injury, Obs ([8]; BRSNW, 140 g ae/ha): 0%
% visual injury, Obs [9]: 0%
% visual injury, Obs (common rice (ORYSA); 140 g ae/ha): 0%
% visual injury, Obs ([10]; CHEAL, 140 g ae/ha): 5%
pest or weed control at 140 g/ha ([11]; read-out: % visual injury, Obs, EPHHL, 140 g ae/ha): 20%
pest or weed control at 140 g/ha ([12]; Bassia scoparia, post-emergence, KCHSC, 140 g ae/ha, read-out: % visual injury, Obs): 0%

Nc1c(F)c(-c2ccc3cc[nH]c3c2F)nc(C(=O)[O-])c1Cl.[K+] [compound 7]
pest or weed control at 8.75 g/ha ([2]; Amaranthus retroflexus, post-emergence, read-out: % visual injury Obs): 70%
% visual injury Obs (winter wheat (TRZAW) [13]): 0%
% visual injury Obs [14]: 20%
% visual injury Obs [15]: 20%
% visual injury Obs [16]: 50%
% visual injury Obs [17]: 15%
% visual injury Obs [18]: 62%
% visual injury Obs ([8]; 8.75 g ae/ha alone): 58%
pest or weed control at 5 g/ha [10, 27]: 80%
pest or weed control at 8.75 g/ha [10, 27]: 60%
pest or weed control at 10 g/ha [10, 27]: 100%
% visual injury Obs (spring wheat (TRZAS); 6-8 DAA): 3%
% visual injury Obs (spring wheat (TRZAS); 14-16 DAA): 3%
pest or weed control at 5 g/ha ([19]; Cirsium arvense, post-emergence, read-out: % visual injury Obs, 5 g ae/ha alone, 20-22 d): 50%
pest or weed control at 8.75 g/ha ([19]; Cirsium arvense, post-emergence, read-out: % visual injury Obs, 8.75 g ae/ha alone, 20-22 d): 25%
pest or weed control at 10 g/ha ([19]; Cirsium arvense, post-emergence, read-out: % visual injury Obs, 10 g ae/ha alone, 20-22 d): 65%
% visual injury Obs ([20]; 8.75 g ae/ha alone): 5%
% visual injury Obs ([20]; 17.5 g ae/ha alone): 0%
% visual injury Obs ([21]; 8.75 g ae/ha alone): 30%
% visual injury Obs ([21]; 17.5 g ae/ha alone): 40%
% visual injury Obs ([12]; 8.75 g ae/ha alone): 55%
% visual injury Obs (winter wheat (TRZAW) [22]; 8.75 g ae/ha alone): 5%
% visual injury Obs (winter wheat (TRZAW) [22]; 17.5 g ae/ha alone): 0%

CCCCC(CC)COC(=O)COc1ccc(Cl)cc1C (stereo not shown) [MCPA EHE, 2-ethylhexyl (4-chloro-2-methylphenoxy)acetate]
% visual injury, Obs ([1]; 280 g ae/ha): 75%
% visual injury, Obs ([1]; MCPA EHE 140 g ae/ha): 60%
% visual injury, Obs (spring barley (HORVS); HORVS, 420 g ae/ha): 0%
% visual injury (Obs) (spring barley (HORVS); MCPA EHE 420 g ae/ha): 0%
% visual injury Obs (spring barley (HORVS); [28]): 0%
% visual injury, Obs ([2]; MCPA EHE 140 g ae/ha): 70%
pest or weed control at 280 g/ha ([2]; Amaranthus retroflexus, post-emergence, 280 g ae/ha alone, 20-22 d, read-out: % visual injury Obs): 35%
% visual injury (Obs) ([23]; MCPA EHE 420 g ae/ha): 65%
% visual injury, Obs ([23]; 280 g ae/ha): 70%
% visual injury, Obs ([23]; 420 g ae/ha): 65%
% visual injury, Obs ([24]; 280 g ae/ha): 50%
% visual injury, Obs ([24]; MCPA EHE 140 g ae/ha): 0%
% visual injury, Obs (maize (ZEAMX); 280 g ae/ha): 0%
% visual injury, Obs (maize (ZEAMX); MCPA EHE 140 g ae/ha): 0%
pest or weed control at 140 g/ha ([4]; read-out: % visual injury, Obs, IPOHE, MCPA EHE 140 g ae/ha): 80%
pest or weed control at 280 g/ha ([5]; 280 g ae/ha): 65%
pest or weed control at 140 g/ha ([5]; MCPA EHE 140 g ae/ha): 0%
pest or weed control at 140 g/ha [25]: 10%
% visual injury (Obs) (winter wheat (TRZAW) [6]; MCPA EHE 420 g ae/ha): 0%
% visual injury, Obs (winter wheat (TRZAW) [6]; 280 g ae/ha): 0%
% visual injury, Obs (winter wheat (TRZAW) [6]; 420 g ae/ha): 0%
% visual injury, Obs (winter wheat (TRZAW) [6]; MCPA EHE 140 g ae/ha): 3%
% visual injury Obs (winter wheat (TRZAW) [6]; [28]): 3%
% visual injury, Obs ([7]; 280 g ae/ha): 10%
% visual injury Obs ([8]; 280 g ae/ha alone): 73%
% visual injury, Obs (common rice (ORYSA); 280 g ae/ha): 0%
% visual injury, Obs (common rice (ORYSA); MCPA EHE 140 g ae/ha): 3%
pest or weed control at 280 g/ha ([10]; Chenopodium album, post-emergence, 280 g ae/ha alone, 20-22 d, read-out: % visual injury Obs): 75%
% visual injury, Obs ([19]; CIRAR, 280 g ae/ha): 75%
% visual injury Obs ([20]; 280 g ae/ha alone): 20%
pest or weed control at 140 g/ha ([11]; read-out: % visual injury, Obs, EPHHL, MCPA EHE 140 g ae/ha): 0%
plant injury at 140 g/ha [26]: 35%
plant injury at 280 g/ha [26]: 95%
% visual injury Obs ([12]; 280 g ae/ha alone): 0%
pest or weed control at 280 g/ha ([12]; Bassia scoparia, post-emergence, KCHSC, 280 g ae/ha, read-out: % visual injury, Obs): 0%
% visual injury Obs (winter wheat (TRZAW) [22]; 280 g ae/ha alone): 0%
